# Several values for one entry are separate records, joined by “and”; a condition that tells them apart may be missing. Equal entries are not always repeated.
# Tests used:
# IDO1 [1] = target: T1, IDO1 (Homo sapiens, UniProt P14902); assay: Cell-based assay for IDO1 in interferon-γ stimulated A-375 melanoma cells; conditions: interferon-γ stimulation, 48 hours, read-out: IC50, cell-based IDO1 (NFK levels)
# Description: The biological activity of IDO1 inhibitors can be measured by applying above detection methods to cells that are treated with test compound. The expression of IDO1 can be induced in many different cell lines by stimulation with IFNγ (Takikawa, O., et al., J. Biol. Chem. 263: 2041; 1988; Seegers, et al.), or IDO1 can be expressed in cells that lack endogenous IDO1 by transfection of an expression vector containing IDO1 cDNA.
# A-375 melanoma cells were purchased from LGC Standards GmbH (Wesel, Germany) and cultured in DMEM tissue culture medium (Life Technologies, Bleiswijk, The Netherlands), supplemented with 10% (v/v) bovine calf serum. Compounds were dissolved in DMSO and diluted in DMEM. Final DMSO concentration in the assay was 0.4% (v/v). Eight thousand cells per well in 35 μl were seeded in a black 384-well tissue plate (cat. No. 781086; Greiner Bio-One GmbH, Frickenhausen, Germany) and allowed to adhere by incubation at 37° C., 95% humidity, and 5% CO2 overnight. Then, 5 μl of compound solution was added to the cells 1 hour prior to stimulation with 5 μl of 500 ng/ml interferon-γ (R&D Systems, Minneapolis, Minn., USA) diluted in DMEM medium. At the same time, 5 μl of L-tryptophan in 20 mM Hepes buffer pH 7.4 was added. Incubation was continued for 48 hours. To determine NFK levels, 12 μl NFK Green™ (NTRC, Oss, The Netherlands) was added to each well, and the plate was sealed and incubated for 4 hours at 37° C. Fluorescence was measured on an EnVision multimode reader (Perkin Elmer, Waltham, Mass., USA). IC50 were calculated using XLfit™ software (ID Business Solutions, Ltd., Surrey, U.K.).
# IDO1 [2] = target: T1, IDO1; assay: Biochemical IDO1 assay (NFK GreenScreen); design: Recombinant full-length IDO1 (Seegers, N., et al.) and all other assay components were diluted in IDO1 reaction buffer; made in house; conditions: for IC50: recombinant full-length IDO1 25 nM, L-tryptophan 100 μM, NFK Green detection, read-out: IC50, inhibitory potency on IDO1
# Procedure, shortened: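 Recombinant full-length IDO1 in 50 mM NaH2PO4 pH 7.0 with 0.05% Tween-20 and 1% glycerol converted 100 μM L-tryptophan (final) over 60 min at room temperature with compound, 0.3% DMSO.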
# T1 sequence (P14902 whole entry, species assumed): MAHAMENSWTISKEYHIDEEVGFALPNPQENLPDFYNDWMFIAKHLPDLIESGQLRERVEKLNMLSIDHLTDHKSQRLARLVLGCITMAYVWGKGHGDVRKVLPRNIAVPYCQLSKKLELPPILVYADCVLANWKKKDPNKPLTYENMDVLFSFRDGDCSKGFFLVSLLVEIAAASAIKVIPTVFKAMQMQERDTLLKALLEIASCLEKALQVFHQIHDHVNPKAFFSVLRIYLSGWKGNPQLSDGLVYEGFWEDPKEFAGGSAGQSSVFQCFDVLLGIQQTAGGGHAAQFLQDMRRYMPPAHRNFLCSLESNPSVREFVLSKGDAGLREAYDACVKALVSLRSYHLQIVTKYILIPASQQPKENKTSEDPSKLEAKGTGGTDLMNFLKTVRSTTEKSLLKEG
SMILES,IC50 (IDO1 [1]),IC50 (IDO1 [2]),"relative activity of separated isomers (IDO1 [2]; less active / most active isomer of the pair, assay not given)"
"O=C1CN(C(=O)c2c(F)cccc2Cl)C(c2ccc(F)c(Cl)c2)N1O (stereo not drawn) [Example 53, 1-(2-Chloro-6-fluoro-benzoyl)-2-(3-chloro-4-fluoro-phenyl)-3-hydroxy-imidazolidin-4-one]",< 5 µM,≤ 1 µM,
"O=C1CN(C(=O)c2c(F)cccc2F)C(c2ccc(F)c(Br)c2)N1O (stereo not drawn) [Example 44, 2-(3-Bromo-4-fluoro-phenyl)-1-(2,6-difluorobenzoyl)-3-hydroxy-imidazolidin-4-one]",< 5 µM,≤ 1 µM,
"O=C1CN(C(=O)c2c(F)cccc2F)C(c2cccc(I)c2)N1O (stereo not drawn) [Example 71, 1-(2,6-Difluorobenzoyl)-3-hydroxy-2-(3-iodophenyl)imidazolidin-4-one]",< 5 µM,≤ 1 µM,
"O=C1CN(Cc2ccccc2F)C(c2cccc(Br)c2)N1O (stereo not drawn) [Example 125, 2-(3-Bromophenyl)-1-[(2-fluorophenyl)methyl]-3-hydroxy-imidazolidin-4-one]",< 5 µM,≤ 1 µM,
"O=C1CN(Cc2ccccc2F)C(c2cccc(I)c2)N1O (stereo not drawn) [Example 124, 1-[(2-Fluorophenyl)methyl]-3-hydroxy-2-(3-iodophenyl)imidazolidin-4-one]",< 5 µM,≤ 1 µM,
"O=C1CN(C(=O)c2c(F)cccc2F)C(c2cccc(C3CC3)c2)N1O (stereo not drawn) [Example 99, 2-(3-Cyclopropylphenyl)-1-(2,6-difluorobenzoyl)-3-hydroxy-imidazolidin-4-one]",< 5 µM,≤ 5 µM and 1 to 5 µM,
"C[C@@H](c1ccccc1)N1CC(=O)N(O)C1c1cccc(Br)c1 (single isomer, unassigned) [Example 139b]",< 5 µM,≤ 1 µM,most active isomer
"O=C1CN(C(=O)c2cccc(F)c2)C(c2ccc(F)c(Br)c2)N1O (stereo not drawn) [Example 43, 2-(3-Bromo-4-fluoro-phenyl)-1-(3-fluorobenzoyl)-3-hydroxy-imidazolidin-4-one]",< 5 µM,≤ 5 µM and 1 to 5 µM,
"O=C1CN(C(=O)c2cccc(Cl)c2Cl)C(c2cccc(Br)c2)N1O (stereo not drawn) [Example 35, 2-(3-Bromophenyl)-1-(2,3-dichlorobenzoyl)-3-hydroxy-imidazolidin-4-one]",< 5 µM,≤ 1 µM,
"O=C1CN(C(=O)c2c(F)cccc2F)C(c2cccc(C(F)(F)F)c2)N1O (stereo not drawn) [Example 4, 1-(2,6-Difluorobenzoyl)-3-hydroxy-2-[3-(trifluoromethyl)phenyl]imidazolidin-4-one]",< 5 µM,≤ 1 µM,
"O=C1CN(C(=O)c2c(F)cc(-c3cccs3)cc2F)C(c2cccc(Br)c2)N1O (stereo not drawn) [Example 120, 2-(3-Bromophenyl)-1-[2,6-difluoro-4-(2-thienyl)benzoyl]-3-hydroxy-imidazolidin-4-one]",< 5 µM,≤ 1 µM,
"O=C1CN(C(=O)c2c(F)cccc2Cl)C(c2cccc(Br)c2)N1O (stereo not drawn) [Example 32, 2-(3-Bromophenyl)-1-(2-chloro-6-fluoro-benzoyl)-3-hydroxy-imidazolidin-4-one]",< 5 µM,≤ 1 µM,
"O=C1CN(C(=O)c2c(F)cccc2Cl)C(c2cccc(I)c2)N1O (stereo not drawn) [Example 72, 1-(2-chloro-6-fluoro-benzoyl)-3-hydroxy-2-(3-iodophenyl)imidazolidin-4-one]",< 5 µM,≤ 1 µM,
"C=Cc1cccc(C2N(O)C(=O)CN2C(=O)c2c(F)cccc2F)c1 (stereo not drawn) [Example 129, 1-(2,6-Difluorobenzoyl)-3-hydroxy-2-(3-vinylphenyl)imidazolidin-4-one]",< 5 µM,≤ 1 µM,
"O=C1CN(C(=O)c2c(F)cccc2Cl)C(c2ccc(Cl)c(C(F)(F)F)c2)N1O (stereo not drawn) [Example 7, 1-(2-Chloro-6-fluoro-benzoyl)-2-[4-chloro-3-(trifluoromethyl)phenyl]-3-hydroxy-imidazolidin-4-one]",< 5 µM,≤ 5 µM and 1 to 5 µM,
"O=C1CN(C(=O)c2ccccc2Cl)C(c2cccc(Br)c2)N1O (stereo not drawn) [Example 34, 2-(3-Bromophenyl)-1-(2-chlorobenzoyl)-3-hydroxy-imidazolidin-4-one]",< 5 µM,≤ 1 µM,
